Assay results taken from ChEMBL document CHEMBL5625240, “Synthesis and evaluation of 2-NMPA derivatives as potential agents for prevention of osteoporosis in vitro and in vivo” (Eur J Med Chem, 2023).
“And” between values parts separate entries of the source, which are not always exact repeats. Equal entries are not always repeated. The source made the active and inactive calls. The calls are words filed in the database; no cut-off is given here.

Tests used:
[1] = test system: BMDM; assay: Anti-osteoporosis activity in mouse BMDM cells assessed as inhibition of RANKL-induced osteoclastogenesis at 2 uM measured for 30 mins in presence of MCSF by TRAP staining based assay; assay type: functional; conditions: for inhibition at 2 µM: Mus musculus, BMDM
[2] = test system: BMDM; assay: Anti-osteoporosis activity in mouse BMDM cells assessed as inhibition of RANKL-induced osteoclastogenesis at 1 uM measured for 30 mins in presence of MCSF by TRAP staining based assay; assay type: functional; conditions: 0.5 h
[3] = test system: BMDM; assay: Anti-osteoporosis activity in mouse BMDM cells assessed as inhibition of […]-induced osteoclastogenesis at 2 uM measured for 30 mins in presence of MCSF by TRAP staining based assay; assay type: functional; conditions: 0.5 h
[4] = test system: BMDM; assay: Inhibition of RANKL/M-CSF-induced osteoclastogenesis in mouse BMDM cells assessed as decrease in bone resorption pit size at 1000 nM incubated for 6 days by microscopic analysis; assay type: functional, cell-based; conditions: time 6.0 day
[5] = test system: Mus musculus; assay: Anti-osteoporosis activity in OVX-induced osteoporosis C57BL/6 mouse model assessed as reduction in […] level in serum at 10 mg/kg, ip daily for 4 weeks; assay type: functional, organism-based
[6] = test system: BMDM; assay: Inhibition of RANKL/M-CSF-induced osteoclastogenesis in mouse BMDM cells assessed as decrease in Acp5 mRNA level at 1 uM incubated for 4 days by qRT-PCR analysis; assay type: functional, cell-based; conditions: time 4.0 day
[7] = test system: BMDM; assay: Anti-osteoporosis activity in mouse BMDM cells assessed as inhibition of RANKL/M-CSF-induced osteoclasts formation measured for 4 days by TRAP staining based assay; assay type: functional, cell-based
[8] = test system: BMDM; assay: Cytotoxicity against mouse BMDM cells assessed as reduction in cell viability at < 4 uM incubated for 48 hrs; assay type: toxicity, cell-based
[9] = test system: BMDM; assay: Anti-osteoclastogenesis activity in mouse BMDM cells assessed as inhibition of RANKL/M-CSF-induced osteoclasts differentiation at below 2 uM measured for 9 days by […] staining based assay; assay type: functional, cell-based; conditions: time 9.0 day
[10] = test system: BMDM; assay: Anti-osteoclastogenesis activity in mouse BMDM cells assessed as inhibition of RANKL/M-CSF-induced osteoclasts differentiation at 2 uM measured for 9 days by […] staining based assay; assay type: functional; conditions: 216 h, time 9 day
[11] = test system: BMDM; assay: Inhibition of RANKL/M-CSF-induced osteoclastogenesis in mouse BMDM cells assessed as reduction in F-actin belt size formation at 500 to 2000 nM incubated for 6 days by immunofluorescence assay; assay type: functional, cell-based; conditions: dose 500-2000 nM, time 6.0 day
[12] = test system: BMDM; assay: Inhibition of RANKL/M-CSF-induced osteoclastogenesis in mouse BMDM cells assessed as reduction in F-actin belt size formation at 1000 nM incubated for 6 days by immunofluorescence assay; assay type: functional, cell-based; conditions: time 6.0 day
[13] = test system: BMDM; assay: Inhibition of RANKL/M-CSF-induced osteoclastogenesis in mouse BMDM cells assessed as reduction in F-actin belt size formation at 1 uM incubated for 6 days by immunofluorescence assay; assay type: functional, cell-based; conditions: time 6.0 day
[14] = test system: BMDM; assay: Inhibition of RANKL/M-CSF-induced osteoclastogenesis in mouse BMDM cells assessed as decrease in bone resorption pit number at 500 to 2000 nM incubated for 6 days by microscopic analysis; assay type: functional, cell-based; conditions: dose 500-2000 nM, time 6.0 day
[15] = test system: BMDM; assay: Inhibition of RANKL/M-CSF-induced osteoclastogenesis in mouse BMDM cells assessed as decrease in bone resorption pit size at 500 to 2000 nM incubated for 6 days by microscopic analysis; assay type: functional, cell-based; conditions: dose 500-2000 nM, time 6.0 day
[16] = test system: BMDM; assay: Inhibition of RANKL/M-CSF-induced osteoclastogenesis in mouse BMDM cells assessed as decrease in Nfatc1 mRNA level at 1 uM incubated for 4 days by qRT-PCR analysis; assay type: functional, cell-based; conditions: time 4.0 day
[17] = test system: BMDM; assay: Inhibition of RANKL/M-CSF-induced osteoclastogenesis in mouse BMDM cells assessed as decrease in Dc-stamp mRNA level at 1 uM incubated for 4 days by qRT-PCR analysis; assay type: functional, cell-based; conditions: time 4.0 day
[18] = test system: BMDM; assay: Inhibition of RANKL/M-CSF-induced osteoclastogenesis in mouse BMDM cells assessed as decrease in Atp6v0d2 mRNA level at 1 uM incubated for 4 days by qRT-PCR analysis; assay type: functional, cell-based; conditions: time 4.0 day
[19] = test system: BMDM; assay: Inhibition of RANKL/M-CSF-induced osteoclastogenesis in mouse BMDM cells assessed as decrease in Mmp9 mRNA level at 1 uM incubated for 4 days by qRT-PCR analysis; assay type: functional, cell-based; conditions: time 4.0 day
[20] = test system: BMDM; assay: Inhibition of RANKL/M-CSF-induced osteoclastogenesis in mouse BMDM cells assessed as decrease in CTSK mRNA level at 1 uM incubated for 4 days by qRT-PCR analysis; assay type: functional, cell-based; conditions: time 4.0 day
[21] = test system: BMDM; assay: Downregulation of NFATc1 expression in mouse RANKL-induced BMDM cells at 1 uM incubated for 4 days by Western blot analysis; assay type: functional, cell-based; conditions: time 4.0 day
[22] = test system: BMDM; assay: Downregulation of TRAF6 expression in RANKL-induced mouse BMDM cells at 1 uM incubated for 4 days by Western blot analysis; assay type: functional, cell-based; conditions: time 4.0 day
[23] = test system: BMDM; assay: Downregulation of c-fos expression in RANKL-induced mouse BMDM cells at 1 uM incubated for 4 days by Western blot analysis; assay type: functional, cell-based; conditions: time 4.0 day
[24] = test system: BMDM; assay: Downregulation of c-src expression in RANKL-induced mouse BMDM cells at 1 uM incubated for 4 days by Western blot analysis; assay type: functional, cell-based; conditions: time 4.0 day
[25] = test system: BMDM; assay: Downregulation of CTSK expression in RANKL-induced mouse BMDM cells at 1 uM incubated for 4 days by Western blot analysis; assay type: functional, cell-based; conditions: time 4.0 day
[26] = test system: BMDM; assay: Inhibition of PI3K phosphorylation in RANKL/M-CSF-induced mouse BMDM cells by Western blot analysis; assay type: cell-based; conditions: dose 1.0 µM
[27] = test system: BMDM; assay: Inhibition of AKT phosphorylation in RANKL/M-CSF-induced mouse BMDM cells by Western blot analysis; assay type: cell-based; conditions: dose 1.0 µM
[28] = target: T1, NF-kappa-B inhibitor alpha (Mus musculus) (UniProt Q9Z1E3); assay: Inhibition of IkappaBalpha phosphorylation in RANKL/M-CSF-induced mouse BMDM cells by Western blot analysis; assay type: cell-based; conditions: dose 1.0 µM
T1 sequence (whole entry): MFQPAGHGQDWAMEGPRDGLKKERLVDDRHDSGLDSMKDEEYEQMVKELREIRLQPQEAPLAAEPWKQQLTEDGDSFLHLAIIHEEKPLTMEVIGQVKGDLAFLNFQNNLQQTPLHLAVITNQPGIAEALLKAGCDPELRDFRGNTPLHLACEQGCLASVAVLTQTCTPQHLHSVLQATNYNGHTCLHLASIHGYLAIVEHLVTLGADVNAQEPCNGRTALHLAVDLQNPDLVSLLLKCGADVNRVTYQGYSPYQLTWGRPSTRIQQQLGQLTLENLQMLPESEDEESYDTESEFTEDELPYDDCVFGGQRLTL

[29] = test system: BMDM; assay: Inhibition of NF-kappaB phosphorylation in RANKL/M-CSF-induced mouse BMDM cells by Western blot analysis; assay type: cell-based; conditions: dose 1.0 µM
[30] = test system: Mus musculus; assay: Anti-osteoporosis activity in OVX-induced osteoporosis C57BL/6 mouse model assessed as prevention of bone loss in femur at 10 mg/kg, ip daily for 4 weeks by micro computed tomographic analysis; assay type: functional, organism-based
[31] = test system: Mus musculus; assay: Anti-osteoporosis activity in OVX-induced osteoporosis C57BL/6 mouse model assessed as recovery of bone surface density in femur at 10 mg/kg, ip daily for 4 weeks by micro computed tomographic analysis; assay type: functional, organism-based
[32] = test system: Mus musculus; assay: Anti-osteoporosis activity in OVX-induced osteoporosis C57BL/6 mouse model assessed as recovery of trabecular separation in femur at 10 mg/kg, ip daily for 4 weeks by micro computed tomographic analysis; assay type: functional, organism-based
[33] = test system: Mus musculus; assay: Anti-osteoporosis activity in OVX-induced osteoporosis C57BL/6 mouse model assessed as recovery of trabecular number in femur at 10 mg/kg, ip daily for 4 weeks by micro computed tomographic analysis; assay type: functional, organism-based
[34] = test system: Mus musculus; assay: Anti-osteoporosis activity in OVX-induced osteoporosis C57BL/6 mouse model assessed as recovery of trabecular volume in femur at 10 mg/kg, ip daily for 4 weeks by micro computed tomographic analysis; assay type: functional, organism-based
[35] = test system: BMDM; assay: Anti-osteoclastogenesis activity in RANKL/M-CSF-induced mouse BMDM cells assessed as inhibition of TRAF6 protein expression at 1 uM measured for 4 days; assay type: functional, cell-based; conditions: time 4.0 day

Cc1cc(OCC(=O)Nc2ccccc2N2CCOCC2)cc(C)c1Cl
inhibition [1]: inactive

Cc1cccc(OCC(=O)Nc2ccccc2N2CCOCC2)c1C
inhibition at 2 µM ([1]; 0.5 h): 13.6%

O=C(COc1ccccc1Cl)Nc1ccccc1N1CCOCC1
inhibition at 1 µM [2]: 21%

O=C(COc1ccccc1Cl)Nc1ccc(OC(=O)c2cccs2)cc1N1CCOCC1
inhibition at 1 µM [2]: 39.3%

O=C(COc1ccccc1Cl)Nc1ccc(OC(=O)c2ccccc2F)cc1N1CCOCC1
inhibition at 1 µM [2]: 34.2%

Cc1ccc(OCC(=O)Nc2cccc(Cl)c2N2CCOCC2)c(C(C)C)c1
inhibition at 2 µM ([1]; 0.5 h): 86.4%
inhibition at 2 µM [3]: 82.9%

O=C(COc1ccccc1Cl)Nc1ccc(OS(=O)(=O)C(F)(F)F)cc1N1CCOCC1
inhibition at 1 µM [2]: 50.5%

O=C(COc1ccccc1Cl)Nc1ccc(O)cc1N1CCOCC1
inhibition at 1 µM [2]: 27.1%

CCC(=O)Oc1ccc(NC(=O)COc2ccccc2Cl)c(N2CCOCC2)c1
inhibition at 1 µM [2]: 32.8%

O=C(CS(=O)(=O)c1ccccc1)Nc1cccc(Cl)c1N1CCOCC1
inhibition at 2 µM ([1]; 0.5 h): 62.1%

CC(C)(C)OC(=O)N[C@@H](Cc1cn(C(=O)OC(C)(C)C)cn1)C(=O)Oc1ccc(NC(=O)COc2ccccc2Cl)c(N2CCOCC2)c1
inhibition at 1 µM [2]: 34.6%

NCCCC(O)(P(=O)(O)O)P(=O)(O)O [ALENDRONIC ACID]
inhibition at 2 µM ([1]; 0.5 h): 67.9%

COC(=O)c1ccc(N2CCOCC2)c(NC(=O)COc2cccc(C)c2)c1
inhibition (INH) ([1]; 0.5 h, 2 µM): 94.58% and 52.52%
inhibition at 2 µM [3]: 2.77%
inhibition at 1 µM [2]: 52.5%

CC(C)(C)[Si](C)(C)Oc1ccc(NC(=O)COc2ccccc2Cl)c(N2CCOCC2)c1
inhibition at 1 µM [2]: 34.8%

CCC(=O)N1CCN(c2ccccc2NC(=O)COc2ccccc2Cl)CC1
inhibition at 1 µM [2]: 42%
inhibition [4]: Active
Activity [5]: Active

O=C(COc1ccccc1Cl)Nc1ccc(OC(=O)c2ccco2)cc1N1CCOCC1
inhibition at 1 µM [2]: 31.4%

CS(=O)(=O)N(CC(=O)Nc1ccccc1Sc1ccccc1)c1cccc(C(=O)Oc2ccc(NC(=O)COc3ccccc3Cl)c(N3CCOCC3)c2)c1
inhibition at 1 µM [2]: 50.9%

CCCN(CCC)S(=O)(=O)c1ccc(C(=O)Oc2ccc(NC(=O)COc3ccccc3Cl)c(N3CCOCC3)c2)cc1
inhibition at 1 µM [2]: 21.6%

Cc1cc(=O)oc2cc(OCC(=O)Nc3cc(C(F)(F)F)ccc3N3CCOCC3)ccc12
inhibition at 2 µM ([1]; 0.5 h): 95.3%
inhibition at 2 µM [3]: 29.4%

CC(Oc1ccc(Cl)cc1Cl)C(=O)Nc1cccc(Cl)c1N1CCOCC1 (configuration not stated)
inhibition at 2 µM ([1]; 0.5 h): 43.4%

Cc1ccc(S(=O)(=O)CC(=O)Nc2cc(Cl)ccc2N2CCOCC2)cc1
inhibition at 2 µM ([1]; 0.5 h): 30.9%

CC(=O)Nc1ccc(S(=O)(=O)Oc2ccc(NC(=O)COc3ccccc3Cl)c(N3CCOCC3)c2)cc1
inhibition [6]: Active
inhibition at 1 µM [2]: 61.5%
IC50 ([7]; 96 h): 358 nM
inhibition ([7]; dose <= 4000.0 nM, time 4.0 day): Dose-Dependent Effect
Activity [8]: Non-Toxic
inhibition [9]: inactive
inhibition at 2 µM [10]: 100%
inhibition [11]: Active
inhibition [12]: Active
inhibition [13]: Active
inhibition [14]: Active
inhibition [15]: Active
inhibition [16]: Active
inhibition [17]: Active
inhibition [18]: Active
inhibition [19]: Active
inhibition [20]: Active
Activity [21]: Active
Activity [22]: Active
Activity [23]: Active
Activity [24]: Active
Activity [25]: Active
inhibition [26]: Active
inhibition [27]: Active
inhibition [28]: Active
inhibition [29]: Active
Activity [30]: Active
Activity [31]: Active
Activity [32]: Active
Activity [33]: Active
Activity [34]: Active
Activity [5]: Active
Activity [35]: Active

CC(=O)Nc1ccc(S(=O)(=O)Oc2ccc(N)c(N3CCOCC3)c2)cc1
inhibition at 1 µM [2]: 11.3%

O=C(CSc1cccc2ccccc12)Nc1ccccc1N1CCOCC1
inhibition at 2 µM ([1]; 0.5 h): 61.3%
